Measurements: ChEMBL document CHEMBL3091296, “Design, synthesis and biological evaluation of 3-benzyloxy-linked pyrimidinylphenylamine derivatives as potent HIV-1 NNRTIs” (Bioorg Med Chem, 2013)

Legend:
[1] = Selectivity index, ratio of CC50 for human MT4 cells to EC50 for wild-type HIV1 3B infected in MT4 cells; type: toxicity, cell-based; details: read-out: Ratio CC50/EC50
[2] = test system: Human immunodeficiency virus 1; assay: Antiviral activity against wild-type HIV1 3B infected in MT4 cells assessed as reduction in virus-induced cytopathic effect after 5 days by MTT assay; type: functional, organism-based; details: Human immunodeficiency virus 1, 3B, MT4, 120 h
[3] = test system: Human immunodeficiency virus 2; assay: Antiviral activity against HIV2 ROD infected in MT4 cells assessed as reduction in virus-induced cytopathic effect after 5 days by MTT assay; type: functional, organism-based; details: Human immunodeficiency virus 2, ISOLATE ROD, MT4, 120 h
[4] = Cytotoxicity against mock-infected human MT4 cells after 5 days by MTT assay; type: cell-based
[5] = test system: Human immunodeficiency virus 1; assay: Antiviral activity against HIV1 harboring reverse transcriptase K103N/Y181C mutant infected in MT4 cells assessed as reduction in virus-induced cytopathic effect after 5 days by MTT assay; type: functional, organism-based; details: Human immunodeficiency virus 1, MT4, 120 h
[6] = biological target: Human immunodeficiency virus type 1 reverse transcriptase (Human immunodeficiency virus 1, UniProt Q72547); assay: Inhibition of HIV-1 reverse transcriptase assessed as inhibition of biotin dUTP incorporation by primer extension assay

With COc1ccnc(Nc2ccc(Cl)c(Oc3ccccc3)c2)n1 as the compound, how does the selectivity ratio [1] read?
The selectivity ratio was 15.

Which results are given for COc1ccnc(Nc2ccc(Cl)c(OCc3ccc(C#N)cc3)c2)n1?
selectivity ratio [1]: 17; EC50 [2]: 17000 nM; EC50 [3]: > 283 µM; CC50 at 120 h [4]: 283 µM; EC50 [5]: > 283 µM

What does the source list for COc1ccnc(Nc2ccc(Cl)c(OCc3ccccc3C)c2)n1?
selectivity ratio [1]: 106; EC50 [2]: 82 nM; EC50 [3]: > 8.8 µM; CC50 at 120 h [4]: 8.8 µM; EC50 [5]: > 8.8 µM

For COc1ccc(COc2cc(Nc3nccc(OC)n3)ccc2Cl)cc1, which selectivity ratio [1] is on record?
The selectivity ratio was at least 37.

And the EC50 [2]?
The EC50 was 7800 nM.

What about the EC50 [3] of the same compound?
Its EC50 is over 290 µM.

And the CC50 at 120 h [4]?
The CC50 at 120 h was at least 290 µM.

What about the EC50 [5] of the same compound?
Its EC50 is over 290 µM.

Which results are given for COc1ccnc(Nc2ccc(Cl)c(OCc3ccc([N+](=O)[O-])cc3)c2)n1?
selectivity ratio [1]: > 1; EC50 [2]: > 323000 nM; CC50 at 120 h [4]: > 323 µM

For COC(=O)c1ccc(COc2cc(Nc3nccc(OC)n3)ccc2Cl)cc1, which selectivity ratio [1] is on record?
The selectivity ratio was under 1.

What about the EC50 [2] of the same compound?
The EC50 was over 106000 nM.

What about the EC50 [3] of the same compound?
The EC50 was over 1.6 µM.

What about the CC50 at 120 h [4] of the same compound?
Its CC50 at 120 h is at least 106 µM.

Which selectivity ratio [1] does the source give for COc1ccnc(Nc2ccc(Cl)c(OCc3ccc(C(N)=O)cc3)c2)n1 here?
The selectivity ratio was over 9.

What about the EC50 [2] of the same compound?
The EC50 was 35000 nM.

And the EC50 [3]?
The EC50 was over 325 µM.

What about the CC50 at 120 h [4] of the same compound?
Its CC50 at 120 h is over 325 µM.

What about the EC50 [5] of the same compound?
Its EC50 is over 325 µM.

For COc1ccnc(Nc2ccc(Cl)c(OCc3cccc(Cl)c3)c2)n1, which selectivity ratio [1] is on record?
Its selectivity ratio is over 1460.

And the EC50 [2]?
The EC50 was 230 nM.

And the EC50 [3]?
The EC50 was over 332 µM.

What about the CC50 at 120 h [4] of the same compound?
The CC50 at 120 h was over 332 µM.

And the EC50 [5]?
Its EC50 is over 332 µM.

Which selectivity ratio [1] does the source give for COc1ccnc(Nc2ccc(Cl)c(OCc3ccc(Cl)cc3)c2)n1 here?
The selectivity ratio was 12.

And the EC50 [2]?
The EC50 was 7700 nM.

And the EC50 [3]?
Its EC50 is over 95 µM.

And the CC50 at 120 h [4]?
The CC50 at 120 h was 95 µM.

And the EC50 [5]?
The EC50 was over 95 µM.

What does the source list for COc1ccnc(Nc2ccc(Cl)c(OCc3ccc(Cl)cc3Cl)c2)n1?
selectivity ratio [1]: < 1; EC50 [2]: > 77000 nM; EC50 [3]: > 77 µM; CC50 at 120 h [4]: 77 µM

Which selectivity ratio [1] does the source give for COc1ccnc(Nc2ccc(Cl)c(OCc3ccc(Cl)c(Cl)c3)c2)n1 here?
The selectivity ratio was over 1.

What about the EC50 [2] of the same compound?
Its EC50 is over 304000 nM.

What about the EC50 [3] of the same compound?
The EC50 was over 304 µM.

And the CC50 at 120 h [4]?
Its CC50 at 120 h is over 304 µM.

With COc1ccnc(Nc2ccc(Cl)c(OCc3ccccc3F)c2)n1 as the compound, how does the selectivity ratio [1] read?
The selectivity ratio was 777.

What about the EC50 [2] of the same compound?
The EC50 was 50 nM.

And the EC50 [3]?
The EC50 was over 42 µM.

What about the CC50 at 120 h [4] of the same compound?
Its CC50 at 120 h is 42 µM.

What about the EC50 [5] of the same compound?
The EC50 was over 42 µM.

With COc1ccnc(Nc2ccc(Cl)c(OCc3cccc(F)c3)c2)n1 as the compound, how does the IC50 [6] read?
Its IC50 is 1500 nM.

And the selectivity ratio [1]?
The selectivity ratio was over 4870.

And the EC50 [2]?
The EC50 was 70 nM.

What about the EC50 [3] of the same compound?
Its EC50 is over 347 µM.

And the CC50 at 120 h [4]?
The CC50 at 120 h was over 347 µM.

And the EC50 [5]?
The EC50 was over 347 µM.

With COc1ccnc(Nc2ccc(Cl)c(OCc3ccc(F)cc3)c2)n1 as the compound, how does the selectivity ratio [1] read?
Its selectivity ratio is 309.

What about the EC50 [2] of the same compound?
The EC50 was 710 nM.

What about the EC50 [3] of the same compound?
The EC50 was over 218 µM.

What about the CC50 at 120 h [4] of the same compound?
Its CC50 at 120 h is 218 µM.

And the EC50 [5]?
The EC50 was over 218 µM.

Which selectivity ratio [1] does the source give for COc1ccnc(Nc2ccc(Cl)c(OCc3ccccc3Br)c2)n1 here?
Its selectivity ratio is 158.

What about the EC50 [2] of the same compound?
Its EC50 is 330 nM.

And the EC50 [3]?
The EC50 was over 52 µM.

And the CC50 at 120 h [4]?
The CC50 at 120 h was 52 µM.

And the EC50 [5]?
Its EC50 is over 52 µM.

With COc1ccnc(Nc2ccc(Cl)c(OCc3cccc(Br)c3)c2)n1 as the compound, how does the selectivity ratio [1] read?
Its selectivity ratio is over 393.

What about the EC50 [2] of the same compound?
The EC50 was 760 nM.

And the EC50 [3]?
Its EC50 is over 297 µM.

And the CC50 at 120 h [4]?
Its CC50 at 120 h is over 297 µM.

What about the EC50 [5] of the same compound?
The EC50 was over 297 µM.

Which selectivity ratio [1] does the source give for COc1ccnc(Nc2ccc(Cl)c(OCc3ccc(Br)cc3)c2)n1 here?
Its selectivity ratio is 10.

And the EC50 [2]?
The EC50 was 23000 nM.

And the EC50 [3]?
Its EC50 is over 224 µM.

And the CC50 at 120 h [4]?
Its CC50 at 120 h is 224 µM.

What about the EC50 [5] of the same compound?
The EC50 was over 224 µM.

Which results are given for COc1ccnc(Nc2ccc(Cl)c(OCc3ccccc3C#N)c2)n1?
selectivity ratio [1]: 1290; EC50 [2]: 150 nM; EC50 [3]: > 199 µM; CC50 at 120 h [4]: 199 µM; EC50 [5]: > 199 µM

Which results are given for COc1ccnc(Nc2ccc(Cl)c(OCc3ccccc3Cl)c2)n1?
selectivity ratio [1]: 143; EC50 [2]: 230 nM; EC50 [3]: > 33 µM; CC50 at 120 h [4]: 33 µM; EC50 [5]: > 33 µM

With COc1ccnc(Nc2ccc(Cl)c(OCc3ccccc3)c2)n1 as the compound, how does the selectivity ratio [1] read?
The selectivity ratio was 833.

What about the EC50 [2] of the same compound?
The EC50 was 75 nM.

And the EC50 [3]?
The EC50 was over 62 µM.

And the CC50 at 120 h [4]?
Its CC50 at 120 h is 62 µM.

What about the EC50 [5] of the same compound?
The EC50 was over 62 µM.

For O=C1Nc2ccc(Cl)cc2[C@@](C#CC2CC2)(C(F)(F)F)O1 [EFAVIRENZ], which selectivity ratio [1] is on record?
The selectivity ratio was over 693.

What about the EC50 [2] of the same compound?
The EC50 was 9 nM.

And the EC50 [5]?
Its EC50 is 0.52 µM.

With Cc1ccnc2c1NC(=O)c1cccnc1N2C1CC1 [NEVIRAPINE] as the compound, how does the EC50 [2] read?
The EC50 was 113 nM.

What about the CC50 at 120 h [4] of the same compound?
Its CC50 at 120 h is over 15 µM.

And the EC50 [5]?
Its EC50 is over 5 µM.
